Source: PubChem BioAssay (NCI)
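These data come from cells grown in 96-well plates and exposed to compound for 48 hours at five concentrations. GI50 marks 50% less growth. TGI is the concentration that stops growth completely.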

Tests used:
Assay in all cases: DTP human tumour cell line panel, 48 h
MALME-3M melanoma = test system: MALME-3M melanoma
MDA-MB-231 breast = test system: MDA-MB-231 breast
KM12 colon = test system: KM12 colon
NCI-H226 lung = test system: NCI-H226 lung
RXF 393 renal = test system: RXF 393 renal
OVCAR-3 ovarian = test system: OVCAR-3 ovarian
LOX IMVI melanoma = test system: LOX IMVI melanoma
NCI-H460 lung = test system: NCI-H460 lung
A498 renal = test system: A498 renal
UACC-62 melanoma = test system: UACC-62 melanoma
HCC-2998 colon = test system: HCC-2998 colon
SF-295 CNS = test system: SF-295 CNS
CAKI-1 renal = test system: CAKI-1 renal
SN12C renal = test system: SN12C renal
SK-OV-3 ovarian = test system: SK-OV-3 ovarian
SK-MEL-5 melanoma = test system: SK-MEL-5 melanoma
HCT-116 colon = test system: HCT-116 colon
MDA-MB-435 = test system: MDA-MB-435
HOP-62 NSCLC = test system: HOP-62 NSCLC
OVCAR-5 ovarian = test system: OVCAR-5 ovarian
SNB-19 CNS = test system: SNB-19 CNS
BT-549 breast = test system: BT-549 breast
MCF7 breast = test system: MCF7 breast
NCI-H23 lung = test system: NCI-H23 lung
MOLT-4 leukemia = test system: MOLT-4 leukemia
SR leukemia = test system: SR leukemia
CCRF-CEM leukemia = test system: CCRF-CEM leukemia
RPMI-8226 leukemia = test system: RPMI-8226 leukemia

N#Cc1c(Br)n(C2OC(CO)C(O)C2O)c2ncn3ccnc3c12 (stereo not given)
GI50 (MALME-3M melanoma): > 100 µM | TGI (MALME-3M melanoma): > 100 µM | GI50 (MDA-MB-231 breast): > 100 µM | TGI (MDA-MB-231 breast): > 100 µM | GI50 (KM12 colon): > 100 µM | TGI (KM12 colon): > 100 µM | GI50 (NCI-H226 lung): 40.6 µM | TGI (NCI-H226 lung): > 100 µM | GI50 (RXF 393 renal): 86.7 µM | TGI (RXF 393 renal): > 100 µM | GI50 (OVCAR-3 ovarian): > 100 µM | TGI (OVCAR-3 ovarian): > 100 µM | GI50 (LOX IMVI melanoma): 60.1 µM | TGI (LOX IMVI melanoma): > 100 µM | GI50 (NCI-H460 lung): 40.7 µM | TGI (NCI-H460 lung): > 100 µM | GI50 (A498 renal): 19.9 µM | TGI (A498 renal): > 100 µM | GI50 (UACC-62 melanoma): > 100 µM | TGI (UACC-62 melanoma): > 100 µM | GI50 (HCC-2998 colon): > 100 µM | TGI (HCC-2998 colon): > 100 µM | GI50 (SF-295 CNS): > 100 µM | TGI (SF-295 CNS): > 100 µM | GI50 (CAKI-1 renal): > 100 µM | TGI (CAKI-1 renal): > 100 µM | GI50 (SN12C renal): > 100 µM | TGI (SN12C renal): > 100 µM | GI50 (SK-OV-3 ovarian): > 100 µM | TGI (SK-OV-3 ovarian): > 100 µM | GI50 (SK-MEL-5 melanoma): 64 µM | TGI (SK-MEL-5 melanoma): > 100 µM | GI50 (HCT-116 colon): 46.8 µM | TGI (HCT-116 colon): > 100 µM | GI50 (MDA-MB-435): > 100 µM | TGI (MDA-MB-435): > 100 µM | GI50 (HOP-62 NSCLC): > 100 µM | TGI (HOP-62 NSCLC): > 100 µM | GI50 (OVCAR-5 ovarian): > 100 µM | TGI (OVCAR-5 ovarian): > 100 µM | GI50 (SNB-19 CNS): > 100 µM | TGI (SNB-19 CNS): > 100 µM | GI50 (BT-549 breast): > 100 µM | TGI (BT-549 breast): > 100 µM | GI50 (MCF7 breast): > 100 µM | TGI (MCF7 breast): > 100 µM | GI50 (NCI-H23 lung): > 100 µM | TGI (NCI-H23 lung): > 100 µM | GI50 (MOLT-4 leukemia): 41.9 µM | TGI (MOLT-4 leukemia): > 100 µM | GI50 (SR leukemia): 50.7 µM | TGI (SR leukemia): > 100 µM | GI50 (CCRF-CEM leukemia): > 100 µM | TGI (CCRF-CEM leukemia): > 100 µM | GI50 (RPMI-8226 leukemia): > 100 µM
